# Experimental data as given in patent publication US10092620B2, “Uses of cyclic peptides for treating and preventing atherosclerosis” (THE SCRIPPS RESEARCH INSTITUTE, priority 2013, dated 2018).
# Non-standard residues stand in square brackets, D forms with d. Residues, ends and D or L forms follow the SMILES beside them.
# Experiments:
# [1] = body, liver and spleen weights, food and water intake; type: in vivo, mouse; conditions: oral ~25 mg/kg/day, 10 weeks, LDLr-null mice
# Experimental: Body weight was measured weekly. Mice were weighed prior to fasting. Liver and spleen weights were determined at the end of treatment.
# [2] = test system: HDL in human plasma; test: pre-beta HDL ELISA assay: remodeling HDL in human plasma in vitro; type: biochemical; conditions: pre-beta HDL ELISA
# Experimental: First, various cyclic peptides, including the majority of compounds shown in FIG. 2, were assessed for activities for remodeling HDL in human plasma in vitro. Unlike western blot which was used to generate data shown in FIG. 2, here a pre-beta HDL ELISA assay was used to measure pre-beta HDL levels. Results from the assay are shown in Table 1, which lists the peptides in the order of their activities in remodeling HDL.
# [3] = plasma concentration during oral administration in drinking water; type: in vivo; conditions: LDLr-null (LDLr−/−), mouse, orally in the drinking water at 25 mg/kg/day, limit of detection 1 μM
# Source text: We continued oral administration of the peptide to the animals for an additional eight weeks (ten weeks total for the study) to determine how the peptide would impact the development of atherosclerotic lesions (see FIG. 6 for treatment schedule). At the completion of the 10-week study, the total plasma cholesterol level in the peptide-treated animals was 30% lower than in control animals (FIG. 2c). Moreover, an analysis of the whole aorta lesion area and the aortic sinus lesion volume indicated reductions in atherosclerotic lesions of 26% and 50%, respectively (FIGS. 2c, d). […] When administered orally in the drinking water at 25 mg/kg/day, the plasma concentration of compound 1 was below the 1 μM limit of detection (data not shown).
# LC-MS SIM quantitation of peptide concentration: Cyclic peptide concentrations were quantified by using reverse-phase HPLC coupled with mass spectrometry. The electrospray ionization mass spectrometry measurements were carried out in the positive ionization mode using a single quadrupole mass spectrometer (Hewlett Packard HP 1100 MSD series). […] For quantitative calibration, standard curves were established using mouse EDTA-anticoagulated plasma spiked with various concentrations of the peptide. […]
# [4] = test system: LDLr-null mice; test: in vivo efficacy study: plasma total cholesterol in high-fat-fed LDLr-null mice; design: species or system mouse
# Source text: Encouraged by the above findings, we carried out a 2-week pilot study to determine the effect of 1 on plasma total cholesterol levels. As an animal model, we employed the LDLr-null mouse, which has a human-like lipoprotein profile and is a leading animal model for studying hypercholesterolemia and atherogenesis. Considering that the abiotic nature of cyclic D,L-α-peptides renders them highly resistant to proteolysis, we chose to conduct this pilot in vivo efficacy study via the more convenient oral route of administration. Thus, the cyclic D,L-α-peptide was administered orally in the drinking water for two weeks (each mouse drank ˜0.5 mg peptide per day, or ˜25 mg/kg/day) to mice maintained on a high-fat diet.
# In vivo efficacy study: LDL receptor-null (LDLr^−/−) mice on a C57BL/6J background were initially purchased from Jackson Laboratories (Bar Harbor, Me.) and were bred in house. The mice were weaned at 4 weeks of age and were fed ad libitum a standard chow diet (Harlan Teklad 7019) until they were 10-weeks old, when they were switched to a high-fat Western diet (WD) containing 15.8% (wt/wt) fat, 1.25% (wt/wt) cholesterol, and no cholate (Harlan Teklad 94059). At the time that the WD was started, the test cyclic peptide was added to the drinking water at a high dose of 180 μM (200 μg/mL) or a low dose of 18 μM (20 μg/mL) and the mice (female, n=8 per dosing group) were continued on WD for 10 weeks. The lyophilized peptide was easily dissolved in PBS (pH 7.4) containing 1% sucrose, resulting in a clear solution. The drinking water solution was replaced with fresh solution every day. A control group of eight mice (female, n=8) were fed WD with vehicle (PBS with 1% sucrose) drinking water. The mice consumed approximately 2.5 mL of water per day per mouse, and there was no significant difference in water or food consumption between groups.
# Effect of cyclic peptides on plasma total cholesterol: The mice were bled after two weeks of treatment and at the time of harvest (10 weeks). The blood (200 μL) was collected after an overnight fast (14-16 h) by retro-orbital puncture into a heparinized capillary tube at two weeks, or by cardiac puncture into EDTA anti-coagulant coated tubes at the time of harvest (10 weeks). Plasma was separated from whole blood immediately by centrifugation of the blood samples at 5000 rpm for 10 min at 4° C., and was then stored at −80° C. Plasma total cholesterol (TC) was measured using an enzymatic colorimetric method kit (Amplex® red cholesterol assay kit, No. A12216, Life Technologies) according to the manufacturer's instructions.
# In addition, several peptides were administered orally to mice at a 35 mg/kg dose (unless otherwise noted) in the drinking water for two weeks. The female LDLr-null mice maintained on a high-fat diet were provided with peptide-treated 1% sucrose/PBS or 1% sucrose/PBS alone as the drinking water ad libitum. Cholesterol levels were then determined. The data are shown in FIG. 7 as a scatter plot along with mean±SD. p values were determined by the one-way ANOVA test with a post hoc Tukey-Kramer test.
smiles,measurement,setting,value
"CC(C)C[C@@H]1NC(=O)[C@@H](Cc2c[nH]c3ccccc23)NC(=O)[C@H](CCCNC(=N)N)NC(=O)[C@@H](CCC(=O)O)NC(=O)[C@H](CCC(N)=O)NC(=O)[C@@H](CCC(=O)O)NC(=O)[C@H](CCCNC(=N)N)NC(=O)[C@@H](Cc2c[nH]c3ccccc23)NC1=O [SEQ ID NO:1, c[wLwReQeR]] (cyclo([dW]L[dW]R[dE]Q[dE]R))","body weight, difference between groups",[1],No differences
same,"food or water intake, difference between groups",[1],No differences
same,"liver weight, difference between groups",[1],No differences
same,"spleen weight, difference between groups",[1],No differences
same,Pre-beta HDL generated (normalized level),[2],0.88
same,level at time molar,[3],< 1000 nM
same,reduction in plasma cholesterol levels compared to control animals,"[4]; 10-fold lower dose ~2.5 mg/kg/day in drinking water, after two weeks",17%
same,reduction in total plasma cholesterol compared to control animals,"[4]; oral in drinking water ~25 mg/kg/day, 2 weeks, female LDLr-null mice, high-fat diet",55%
same,reduction of total plasma cholesterol levels (overview statement),"[4]; oral in drinking water, LDLr-null mice, high-fat diet for 10 weeks, vs. controls",up to 55%
same,total plasma cholesterol level lower than in control animals,"[4]; oral ~25 mg/kg/day, 10 weeks, LDLr-null mice, high-fat diet",30%
same,plasma cholesterol vs control (in words),"[4]; ~2.5 mg/kg/day in drinking water, completion of 10-week study",no significant differences
